The test system of experiment [1] is lower extremity ischemia model mouse. Description: lower extremity ischemia model mouse (laser Doppler perfusion imaging, wound healing, new vessels). In kind it is in vivo. As for the experimental part:
Mouse lower extremity ischemia model was prepared as follows.
C3H mice were anesthetized with nembutal and then skin of one side of lower extremity was cut open to expose artery of lower extremity. The lower extremity ischemia model was prepared by ligating artery of lower extremity at upper groin and lower popliteal region and resecting the artery of lower extremity at this region. The recovery of the blood flow after the resection of the artery of lower extremity by the development of the collateral circulation was observed.
C3H mice at the age of 6 months were divided into three groups; AM administration group, VEGF administration group, and control group. Mice of AM treatment group was continuously injected with AM (50 ng/h) by osmotic pump. Each mouse of VEGF administration group was injected with 20 μl of VEGF (5 ng/h) intramuscularly and used as positive control. Mice of control group were injected with PBS continuously.
The blood flow in the lower extremity ischemia model was monitored using laser Doppler perfusion imaging. The effect of AM on wound healing was also investigated. […] In FIG. 4, almost no blood flow in ischemic lower limb was observed on the first day of ischemic model preparation ([…] day 0).
The increasing of the number of new intramuscular blood vessel at the side of operation was also observed (FIG. 6, panel B). In contrast, in AM heterozygous knockout mice (AM +/−), and the mice administered with “AM 22-52”, a truncated form of AM consisting of from 22 to 52 amino acid sequence (AM antagonist), suppression of the recovery of blood flow and the angiogenesis were observed (FIG. 7). In FIG. 7, the mark “**” denotes p<0.01. Hereinafter the same.

The next experiment relates to claudin 5. Description: claudin 5 gene expression in HUVEC cultured on Matrigel, real-time PCR. It is filed as cell-based, human. As for the experimental part: (1) Adrenomedullin was administered exogenously to HUVEC cultured on Matrigel. After stimulating for 24 hours, the cell was recovered and RNA was extracted. The expression of claudin 5 gene was investigated using real-time PCR technique.
(2) “AM 22-52”, a truncated form of AM consisting of from 22 to 52 amino acid sequence was administered to HUVEC cultured on Matrigel to investigate the gene expression level.

In another experiment the test system is HUVEC. Nature of the experiment: in vitro vascular permeability assay (FITC-dextran through HUVEC monolayer). In kind it is cell-based, human. As for the experimental part:
In vitro vascular permeability assay is an assay in which the cells are cultured in the insert placed on the culture plate with semi-permeable membrane at the bottom to form monolayer, then the substance is added to the insert and the extent of permeability into the plate through the cell monolayer is measured. In particular, the extent of permeability is measured by addition of the substance for the vascular permeability test such as AM, followed by the addition of dextran labeled with FITC onto the cell monolayer, allowing it to permeate through the monolayer, and the fluorescence intensity in the plate well solution is measured. Thus, the suppression activity of AM on the vascular permeability may be investigated.
An insert made of semi-permeable membrane was placed on a cultivation plate, in which HUVEC was cultured so that the cells formed monolayer (EBM-2 medium, 5% CO2, 37° C., 24 hours). The extent of permeability was measured by addition of the substance for the vascular permeability test to the plate on which cell were cultured, followed by the addition of dextran labeled with FITC onto the cell monolayer, allowing it to permeate through the monolayer, and the fluorescence intensity in the plate well solution was measured.

Experiment [2] concerns AM heterozygous knockout mice (AM +/-). Nature of the experiment: rescue test using AM heterozygous knockout mice (lower extremity ischemia model). It is filed as in vivo, mouse. The settings on record: for formation of new blood vessel: AM +/- mice supplemented with AM or VEGF; for recovery of blood flow / angiogenesis effect: AM +/- mice supplemented with exogenous AM or VEGF. As to the method: Rescue test using AM knockout mouse may also be carried out. In the lower-extremity ischemia model prepared from the AM knockout mouse with decreased expression level of AM, angiogenesis potency decreases. When AM is administered exogenously to the AM knockout mouse, recovery of angiogenesis potency may be observed. This is referred to as “rescue test”.
In this example, The lower extremity ischemia model mice were prepared as in Example 2, and the recovery of blood flow of the AM heterozygous knockout mice (AM +/−) supplemented with exogenous AM or VEGF.

Experiment [3] deals with lower extremity edema model mice. Nature of the experiment: lower extremity edema model mice by topical injection of carrageenan. It is filed as in vivo, mouse. The settings on record: continuous administration of AM; carrageenan to pad of foot. As to the method:
Transient edema may be prepared by topical injection of carrageenan, a hyperosmotic substance to pad of foot of mouse. Magnitude of the edema thus formed was evaluated by measuring the thickness of feet pad from time to time.

Experiment [4] has as its system VEGF. Nature of the experiment: expression of VEGF in femoral muscle of lower extremity ischemia model mouse, Western Blot. In kind it is in vivo. The settings on record: AM administration group vs control. As to the method: The lower extremity ischemia model mouse prepared as in Example 2 was sacrificed by cervical dislocation, then femoral muscle sampled, from which protein was extracted and Western Blot analysis was conducted.

In the next experiment the test system is Flk-1 knockout mice. Nature of the experiment: rescue test using Flk-1 knockout mice (lower extremity ischemia model). It is filed as in vivo, mouse. As to the method: On the other hand, supplementation of AM to Flk-1, a receptor of VEGF knockout mice was conducted as a rescue test opposite to that mentioned above. The recovery of blood flow in Flk-1 knockout mice decreased in comparison with wild-type.

The next experiment relates to eNOS. Nature of the experiment: phosphorylation of eNOS in HUVEC, Western Blot. In kind it is cell-based, human. The settings on record: AM 10^-11 to 10^-7 M in combination with VEGF 10 ng/ml. As to the method: (§1) Single administration of AM (10^−11 to 10^−7 M) alone, or administration of AM in combination with VEGF (10 ng/ml) to the cultivating system of human umbilical vein endothelial cell was carried out. Protein was extracted from cells and the phosphorylation of Akt and eNOS was investigated using Western Blot analysis.

The subject of experiment [5] is angiogenesis enhancing factors and adhesion factor gene expression. Nature of the experiment: gene array of sample from lower extremity ischemia model mice. In kind it is in vivo, mouse. The text has this: In this Example, the gene group of which expression level changes by the administration of AM were monitored by gene array using the sample form the lower extremity ischemia model mice

The next experiment deals with Akt. Description: phosphorylation of Akt in HUVEC, Western Blot. The settings on record: AM 10^-11 to 10^-7 M in combination with VEGF 10 ng/ml. In kind it is cell-based, human. As for the experimental part:
as §1
Background: Immunoblotting shows a protein as a band on a membrane.

The subject of experiment [6] is VEGF. Description: expression of VEGF in human artery endothelial cell (HAEC), RT-PCR. The settings on record: AM concentration and stimulation time dependence. It is filed as cell-based. As for the experimental part:
Also, the expression of VEGF in human artery endothelial cell (HAEC) was analyzed using RT-PCR.

Experiment [7] relates to cerebral edema model mice. Description: cerebral edema model (cold injury of dura mater). In kind it is in vivo, mouse. The settings on record: AM administration group vs control. As for the experimental part: Mice were anesthetized with nembutal and then skull was opened. Injury was provided by contacting a cylinder cooled to −80° C. against dura mater. After 24 hours, mice were sacrificed, brain was removed and the increasing in the weight of the brain due to the cerebral edema was quantified. In the similar cerebral edema model, fluorescent-labeled dextran was injected into the tail vein and the leakage of the fluorescence dye out of the vessel in brain was quantified using fluorescent plate reader.

[8] abbreviates: mice administered with AM 22-52.
Setting [9] is: gene array, AM administration group vs control group.

Ends that are not written are not given here.

For “AM 22-52: a truncated form of AM consisting of from 22 to 52 amino acid sequence (AM antagonist) (TVQKLAHQIYQFTDKDKDNVAPRSKISPQGY; ends and bridges not checked; UniProt P35318 116-146, looked up, fragment) [reference compound]”, in experiment [1] (setting [8]), the angiogenesis entry is recorded as “suppression” and the “recovery of blood flow” value is recorded as “suppression”. For the same substance, the “expression of claudin 5” value in the experiment with claudin 5 is “decreased”.
Consider “vascular endothelial growth factor [VEGF]”, for which the “vascular permeability (FITC-dextran through cell monolayer)” value in the experiment with HUVEC (substance alone) was “enhanced vascular permeability”. Moreover, in experiment [2], the “formation of new blood vessel” value is listed as “recovered to the level comparable to the wild-type” and the “recovery of blood flow / angiogenesis effect” value is on record as “recovery of the angiogenesis effect”.
Turning to Adrenomedullin [AM], in experiment [3], the “formation of edema at lower limb (thickness of feet pad)” value is given as “suppressed”. The “expression level of VEGF” value with VEGF [4] is “increased from the early stage after the ischemia operation (day 1)”. The “recovery of blood flow” value with Flk-1 knockout mice (exogenous AM to Flk-1 knockout mice) is listed as “no recovery of blood flow”. In addition, in the experiment with Flk-1 knockout mice (exogenous AM to wild-type mice), the “recovery of blood flow” value is recorded as “enhance the recovery of blood flow”. For the same substance, in experiment [1] (AM 50 ng/h, vs control group), the “wound, amputation and shortening of lower limb” value was “Reduction of wound and decreasing in the number of amputation and shortening of lower limb”. Besides, the “percentage of the mice in which the lower limb is normal or with slight wound” value in experiment [1] (AM administration group) is “more than 80%”. Also, in experiment [1] (AM administration group vs control group), the “number of mice in which the lower limb was amputated or with severe wound” value is given as “smaller than that in the control group”. The “blood flow in ischemic lower limb” value in experiment [1] (Day 7 and 12 after ischemia, AM 50 ng/h) is recorded as “recovery of blood flow was observed”. In [1] (administration of AM), the “number of new intramuscular blood vessel at the side of operation” value is given as “increasing” and the “recovery of the blood flow, ratio ischemic side (L) / non-ischemic side (R) (L/R)” value is recorded as “significant recovery in the blood flow”. The “recovery of the blood flow of lower extremity” value in experiment [1] (laser Doppler perfusion imaging, AM 50 ng/h continuously by osmotic pump, C3H mice) is on record as “Improvement in the recovery of the blood flow”. Further, the “phosphorylation of eNOS by VEGF” value in the experiment with eNOS is reported as “enhanced”. The “vascular permeability (FITC-dextran through cell monolayer)” value with HUVEC (AM in addition to VEGF) was “suppressed the enhancement of vascular permeability by VEGF”. For the same substance, in the experiment with HUVEC (substance alone), the “vascular permeability (FITC-dextran through cell monolayer)” value is reported as “suppression of vascular permeability”. In addition, the “expression levels of eNOS, Osteopontin, VEGF, VCAM-1 and the like” value in [5] (administration of AM in comparison with control group) is given as “increased”. In experiment [5] (setting [9]), the “COL18A1 expression, AM(+)/Control” value was determined as 2.72; the “Osteopontin expression, AM(+)/Control” value is recorded as 1.93; the “PAI-1 expression, AM(+)/Control” value is 1.79; the “PDGF-A expression, AM(+)/Control” value amounted to 5.60. Also, in experiment [5] (setting [9]), the “PDGFRβ expression, AM(+)/Control” value was 1.58; the “TGFβ expression, AM(+)/Control” value turned out to be 4.04; the “Tie-2 expression, AM(+)/Control” value amounted to 3.61; the “VCAM-1 expression, AM(+)/Control” value is recorded as 3.65. Moreover, in experiment [5] (setting [9]), the “VEGF expression, AM(+)/Control” value is 1.50; the “eNOS expression, AM(+)/Control” value came out at 1.71; the “β-glycan expression, AM(+)/Control” value is listed as 6.76. In addition, in experiment [2], the “formation of new blood vessel” value was “recovered to the level comparable to the wild-type” and the “recovery of blood flow / angiogenesis effect” value is given as “recovery of the angiogenesis effect”. Further, the “phosphorylation of Akt by VEGF” value with Akt is “enhanced”. The “expression of claudin 5” value in the experiment with claudin 5 is “enhanced”. Besides, in the experiment on VEGF [6], the “expression level of VEGF” value is “increased concentration- and time dependently”. Moreover, the “vascular permeability in brain (leakage of fluorescent-labeled dextran)” value in experiment [7] is on record as “suppressed in comparison with control”. Further, in experiment [7] (24 hours after injury), the weight of brain result was “decreased”.

(Values after patent publication US9072777B2, “Method for screening substance having proangiogenic effect” (priority 2005, dated 2015).)
